Values quoted from earlier work in patent publication US20180051069A1, “COMPOSITIONS AND METHODS FOR TREATING ALLERGIC INFLAMMATION” (THE GENERAL HOSPITAL CORPORATION, priority 2015, published 2018).

Tests used:
[1] = molecular target: alpha-glucosidase amyloglucosidase (Aspergillus niger, UniProt P69328); conditions: read-out: 50% inhibition
[2] = test system: alpha- or beta-mannosidase
[3] = test system: alpha- or beta-galactosidase
[4] = test system: rat epididymal α-mannosidase
Golgi mannosidase II = molecular target: T1, Golgi mannosidase II (Homo sapiens, UniProt Q16706)
T1 sequence (Q16706 1-1144): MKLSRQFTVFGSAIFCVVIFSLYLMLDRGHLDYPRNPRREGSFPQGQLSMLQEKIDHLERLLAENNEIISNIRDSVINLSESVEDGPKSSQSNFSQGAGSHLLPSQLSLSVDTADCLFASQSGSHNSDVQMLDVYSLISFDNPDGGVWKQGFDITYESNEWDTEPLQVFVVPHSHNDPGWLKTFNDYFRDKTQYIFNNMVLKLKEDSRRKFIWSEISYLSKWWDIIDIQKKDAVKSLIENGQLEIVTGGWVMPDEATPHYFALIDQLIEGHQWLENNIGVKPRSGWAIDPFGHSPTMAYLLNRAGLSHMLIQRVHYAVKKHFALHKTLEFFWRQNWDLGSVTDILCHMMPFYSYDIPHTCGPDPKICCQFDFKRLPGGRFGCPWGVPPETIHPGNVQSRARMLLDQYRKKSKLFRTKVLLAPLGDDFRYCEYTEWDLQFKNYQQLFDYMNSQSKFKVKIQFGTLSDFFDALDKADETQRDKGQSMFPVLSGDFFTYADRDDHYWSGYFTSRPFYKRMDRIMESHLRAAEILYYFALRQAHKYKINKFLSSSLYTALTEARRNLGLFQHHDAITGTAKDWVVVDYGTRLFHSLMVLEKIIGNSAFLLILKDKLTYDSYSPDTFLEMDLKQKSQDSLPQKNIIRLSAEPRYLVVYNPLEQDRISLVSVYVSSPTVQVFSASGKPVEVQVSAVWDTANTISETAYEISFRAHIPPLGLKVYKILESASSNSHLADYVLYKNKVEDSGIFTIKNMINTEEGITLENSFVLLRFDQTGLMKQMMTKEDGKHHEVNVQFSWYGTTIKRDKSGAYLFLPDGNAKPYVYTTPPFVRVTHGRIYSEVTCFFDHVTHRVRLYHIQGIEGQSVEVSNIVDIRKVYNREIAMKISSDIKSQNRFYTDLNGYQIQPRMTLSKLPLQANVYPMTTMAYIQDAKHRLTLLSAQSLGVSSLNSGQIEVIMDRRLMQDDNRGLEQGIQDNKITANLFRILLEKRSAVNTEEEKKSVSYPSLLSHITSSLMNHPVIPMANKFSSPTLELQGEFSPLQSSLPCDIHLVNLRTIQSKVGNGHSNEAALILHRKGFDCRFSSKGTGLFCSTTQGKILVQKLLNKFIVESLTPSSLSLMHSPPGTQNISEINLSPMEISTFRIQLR

Sequence of alpha-glucosidase amyloglucosidase (P69328 25-640): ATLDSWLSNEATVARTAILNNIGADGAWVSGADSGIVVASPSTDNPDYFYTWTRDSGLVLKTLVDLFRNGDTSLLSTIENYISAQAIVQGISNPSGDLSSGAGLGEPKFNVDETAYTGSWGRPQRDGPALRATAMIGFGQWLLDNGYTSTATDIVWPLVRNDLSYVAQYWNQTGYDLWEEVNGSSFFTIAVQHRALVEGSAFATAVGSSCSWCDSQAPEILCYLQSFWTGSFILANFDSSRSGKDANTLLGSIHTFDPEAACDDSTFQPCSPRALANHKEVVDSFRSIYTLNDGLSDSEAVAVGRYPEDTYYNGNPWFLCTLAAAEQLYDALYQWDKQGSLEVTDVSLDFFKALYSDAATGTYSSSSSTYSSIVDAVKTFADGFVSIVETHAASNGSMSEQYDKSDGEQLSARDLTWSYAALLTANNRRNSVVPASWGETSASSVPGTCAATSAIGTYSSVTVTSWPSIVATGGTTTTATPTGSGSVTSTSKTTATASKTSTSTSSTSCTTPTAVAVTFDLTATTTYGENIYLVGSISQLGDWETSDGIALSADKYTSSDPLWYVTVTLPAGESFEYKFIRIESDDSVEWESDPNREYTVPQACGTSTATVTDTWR

## OC[C@@H]1[C@@H](O)[C@H](O)[C@H]2[C@@H](O)CCN21 [Australine]
[1]
  IC50: 5.8 µM
beta-glucosidase
  inhibition of beta-glucosidase: does not inhibit
[2]
  inhibition of alpha- or beta-mannosidase: does not inhibit
[3]
  inhibition of alpha- or beta-galactosidase: does not inhibit

## O[C@H]1[C@H](O)[C@@H](O)CN2CC[C@H](O)[C@H]12 [Castanospermine]
alpha-glucosidase
  inhibition of alpha-glucosidase activities: inhibits

## OC[C@H]1NC[C@@H](O)[C@@H](O)[C@@H]1O [Deoxymannojirimycin]
Rat liver mannosidase I
  inhibition of rat liver mannosidase I: inhibitor
Cultured mammalian cells; intact cells
  effect on synthesis of N-linked oligosaccharides: blocked the synthesis of complex types of N-linked oligosaccharides

## O=C1N[C@@H]2[C@@H](O)[C@@H](O)[C@H](O)[C@@H](CO)N2C1=O [Kifunensine]
Mannosidase I
  effect on mannosidase I: inhibits
Cultured mammalian cells; added to cultured mammalian cells
  concentration causing complete shift of N-linked oligosaccharides from complex chains to Man9(GlcNAc)2 structures: ≥ 1 µg/mL

## CS[C@@H]1[C@@H](N)[C@@H](O)[C@@H](O)[C@H]1O [Mannostatin A]
[4]
  inhibition of rat epididymal α-mannosidase: reported to be an inhibitor

## O[C@H]1[C@H]2[C@H](O)CCCN2C[C@H]1O [Swainsonine]
Golgi mannosidase II
  inhibition of Golgi mannosidase II: potent inhibitor
Mannosidase I
  effect on mannosidase I: no effect
